The values that follow come from the NIST ThermoML archive (doi:10.1016/j.jct.2013.03.023).

Each structure is given as a SMILES string. Numbers after ± are expanded uncertainties.

The conditions of the data set: 101.33 kPa, Liquid; for viscosity: Capillary tube (Ostwald / Ubbelohde) method; for mass density: Vibrating tube method.

By viscosity is commonly meant the resistance of a fluid to flow. The term mass density denotes the mass of a sample divided by its volume. With `CC(O)c1ccccc1` (configuration not stated) [1-phenylethanol], the viscosity is, setting by setting: (298.15 K) 8.703 ± 0.2 mPa·s; (303.15 K) 6.981 ± 0.16 mPa·s; (308.15 K) 5.714 ± 0.13 mPa·s; (313.15 K) 4.748 ± 0.11 mPa·s. For the same molecule, the mass density runs as follows: (298.15 K) 1009 ± 1 kg/m3; (303.15 K) 1004.86 ± 1 kg/m3; (308.15 K) 1000.73 ± 1 kg/m3; (313.15 K) 996.58 ± 1 kg/m3.
For `CCc1ccccc1` [ethylbenzene], the viscosity runs as follows: (298.15 K) 0.6378 ± 0.014 mPa·s; (303.15 K) 0.609 ± 0.013 mPa·s; (308.15 K) 0.5682 ± 0.012 mPa·s; (313.15 K) 0.541 ± 0.012 mPa·s. The mass density is on record as 862.51 ± 1 kg/m3 (298.15 K), 858.1 ± 1 kg/m3 (303.15 K), 853.68 ± 1 kg/m3 (308.15 K) and 849.26 ± 1 kg/m3 (313.15 K).
Turning to `O` [water], for the setting “298.15 K”, the viscosity is on record as 0.891 ± 0.019 mPa·s.
